Assay results as given in patent publication EP2121694B1, “CYCLOPROPYL FUSED INDOLOBENZAZEPINE HCV NS5B INHIBITORS” (Bristol-Myers Squibb Company, priority 2007, dated 2008).
Where two headings read alike, the source gives them in different places.

Experiments:
HCV NS5B = target: T1, HCV NS5B (Hepatitis C virus genotype 1b, UniProt Q9WMX2); test: Modified HCV NS5B RdRp enzyme assay (preincubation protocol); format: biochemical; conditions: HCV NS5B RdRp genotype 1b
T1 construct: The protein was expressed with an 18 amino acid C-terminal truncation to enhance the solubility; made in house; host or cells: E. coli BL21(DE3), pET21a vector
Experimental: HCV NS5B RdRp cloning, expression, and purification. The cDNA encoding the NS5B protein of HCV, genotype 1b, was cloned into the pET21a expression vector. The protein was expressed with an 18 amino acid C-terminal truncation to enhance the solubility. The E. coli competent cell line BL21(DE3) was used for expression of the protein. Cultures were grown at 37 °C for ∼ 4 hours until the cultures reached an optical density of 2.0 at 600 nm. The cultures were cooled to 20 °C and induced with 1 mM IPTG. Fresh ampicillin was added to a final concentration of 50 µg/ml and the cells were grown overnight at 20 °C.
Cell pellets (3L) were lysed for purification to yield 15-24 mgs of purified NS5B. The lysis buffer consisted of 20 mM Tris-HCl, pH 7.4, 500 mM NaCl, 0.5% triton X-100, 1 mM DTT, 1mM EDTA, 20% glycerol, 0.5 mg/ml lysozyme, 10 mM MgCl2, 15 ug/ml deoxyribonuclease I, and Complete TM protease inhibitor tablets (Roche). After addition of the lysis buffer, frozen cell pellets were resuspended using a tissue homogenizer. To reduce the viscosity of the sample, aliquots of the lysate were sonicated on ice using a microtip attached to a Branson sonicator. The sonicated lysate was centrifuged at 100,000 x g for 1hr at 4 °C and filtered through a 0.2 µm filter unit (Corning).
The protein was purified using three sequential chromatography steps: Heparin sepharose CL-6B, polyU sepharose 4B, and Hitrap SP sepharose (Pharmacia). The chromatography buffers were identical to the lysis buffer but contained no lysozyme, deoxyribonuclease I, MgCl2 or protease inhibitor and the NaCl concentration of the buffer was adjusted according to the requirements for charging the protein onto the column. Each column was eluted with a NaCl gradient which varied in length from 5-50 column volumes depending on the column type. After the final chromatography step, the resulting purity of the enzyme is >90% based on SDS-PAGE analysis. The enzyme was aliquoted and stored at -80 °C.
Standard HCV NS5B RdRp enzyme assay. HCV RdRp genotype 1b assays were run in a final volume of 60 µl in 96 well plates (Costar 3912). The assay buffer is composed of 20 mM Hepes, pH 7.5, 2.5 mM KCl, 2.5 mM MgCl2, 1 mM DTT, 1.6 U RNAse inhibitor (Promega N2515), 0.1 mg/ml BSA (Promega R3961), and 2 % glycerol. All compounds were serially diluted (3-fold) in DMSO and diluted further in water such that the final concentration of DMSO in the assay was 2%. HCV RdRp genotype 1b enzyme was used at a final concentration of 28 nM. A polyA template was used at 6 nM, and a biotinylated oligo-dT12 primer was used at 180 nM final concentration. Template was obtained commercially (Amersham 27-4110). Biotinylated primer was prepared by Sigma Genosys. 3H-UTP was used at 0.6 µCi (0.29 µM total UTP). Reactions were initiated by the addition of enzyme, incubated at 30 °C for 60 min, and stopped by adding 25 µl of 50 mM EDTA containing SPA beads (4 µg/µl, Amersham RPNQ 0007). Plates were read on a Packard Top Count NXT after >1hr incubation at room temperature.
Modified HCV NS5B RdRp enzyme assay. A modified enzyme assay was performed essentially as described for the standard enzyme assay except for the following: The biotinylated oligo dT12 primer was precaptured on streptavidin-coated SPA beads by mixing primer and beads in assay buffer and incubating at room temperature for one hour. Unbound primer was removed after centrifugation. The primer-bound beads were resuspended in 20 mM Hepes buffer, pH 7.5 and used in the assay at final concentrations of 20 nM primer and 0.67 µg/µl beads. Order of addition in the assay: enzyme (14 nM) was added to diluted compound followed by the addition of a mixture of template (0.2 nM) , 3H-UTP (0.6 µCi, 0.29 µM), and primer-bound beads, to initiate the reaction; concentrations given are final. Reactions were allowed to proceed for 4 hours at 30° C.
IC50 values for compounds were determined using seven different [I]. […]

HCV replicon = test: HCV FRET screening assay in HCV replicon cells; format: cell-based; conditions: Hepatitis C virus
Excerpt: FRET Assay Preparation. To perform the HCV FRET screening assay, 96-well cell culture plates were used. The FRET peptide (Anaspec, Inc.) (Taliani et al., Anal. Biochem. 1996, 240, 60-67) contains a fluorescence donor, EDANS, near one end of the peptide and an acceptor, DABCYL, near the other end. The fluorescence of the peptide is quenched by […] resonance energy transfer (RET) between the donor and the acceptor, but as the NS3 protease cleaves the peptide the products are released from RET quenching and the fluorescence of the donor becomes apparent. The assay reagent was made as follows: 5X cell Luciferase cell culture lysis reagent from Promega (#E153A) diluted to 1X with dH2O, NaCl added to 150 mM final, the FRET peptide diluted to 20 uM final from a 2 mM stock.
To prepare plates, HCV replicon cells, with or without a Renilla luciferase reporter gene, were trypsinized and placed into each well of a 96-well plate with titrated test compounds added in columns 3 through 12; columns 1 and 2 contained a control compound (HCV protease inhibitor), and the bottom row contained cells without compound. The plates were then placed in a CO2 incubator at 37 °C.
Assays. Subsequent to addition of the test compounds described above (FRET Assay Preparation), at various times the plate was removed and Alamar blue solution (Trek Diagnostics, #00-100) was added per well as a measure of cellular toxicity. After reading in a Cytoflour 4000 instrument (PE Biosystems), plates were rinsed with PBS and then used for FRET assay by the addition of 30 ul of the FRET peptide assay reagent described above (FRET Assay Preparation) per well. The plate was then placed into the Cytoflour 4000 instrument which had been set to 340 excite/490 emission, automatic mode for 20 cycles and the plate read in a kinetic mode. Typically, the signal to noise using an endpoint analysis after the reads was at least three-fold. Alternatively, after Alamar blue reading, plates were rinsed with PBS, 50 ul of DMEM (high glucose) without phenol red was added and plates were then used for luciferase assay using the Promega Dual-Glo Luciferase Assay System.
Compound analysis was determined by quantification of the relative HCV replicon inhibition and the relative cytotoxicity values. To calculate cytoxicity values, the average Alamar Blue fluorescence signals from the control wells were set as 100% non-toxic. The individual signals in each of the compound test wells were then divided by the average control signal and multiplied by 100% to determine […]. To calculate the HCV replicon inhibition values, an average background value was obtained from the two wells containing the highest amount of HCV protease inhibitor at the end of the assay period. These numbers were similar to those obtained from naïve Huh-7 cells.
The background numbers were then subtracted from the average signal obtained from the control wells and this number was used as 100% activity. The individual signals in each of the compound test wells were then divided by the averaged control values after background subtraction and multiplied by 100% to determine percent activity. EC50 values for a protease inhibitor titration were calculated as the concentration which caused a 50% reduction in FRET or luciferase activity. The two numbers generated for the compound plate, percent cytoxicity and percent activity were used to determine compounds of interest for further analysis.

[1] = HCV replicon cells, FRET assay, read-out: EC50

T1 sequence (Q9WMX2 2420-2992): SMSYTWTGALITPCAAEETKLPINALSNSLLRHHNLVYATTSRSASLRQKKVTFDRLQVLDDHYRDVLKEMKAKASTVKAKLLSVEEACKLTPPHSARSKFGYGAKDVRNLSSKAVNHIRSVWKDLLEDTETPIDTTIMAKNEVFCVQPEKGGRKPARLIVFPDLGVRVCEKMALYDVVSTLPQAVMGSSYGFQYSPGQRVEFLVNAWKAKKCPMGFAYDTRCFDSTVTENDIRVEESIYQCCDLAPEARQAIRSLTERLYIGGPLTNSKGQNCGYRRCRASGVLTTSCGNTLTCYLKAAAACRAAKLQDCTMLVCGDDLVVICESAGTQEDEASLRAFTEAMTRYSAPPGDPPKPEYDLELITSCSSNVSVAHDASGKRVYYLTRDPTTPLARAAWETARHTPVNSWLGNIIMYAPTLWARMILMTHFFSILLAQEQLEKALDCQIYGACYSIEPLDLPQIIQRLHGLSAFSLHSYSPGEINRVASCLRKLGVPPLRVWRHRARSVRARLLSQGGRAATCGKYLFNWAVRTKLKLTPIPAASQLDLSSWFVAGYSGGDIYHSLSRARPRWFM

| Compound | IC50 (HCV NS5B) [nM] | EC50 (HCV replicon) [nM] | EC50 (HCV replicon; [1]) [nM] |
| --- | --- | --- | --- |
| COCC1CN(C(=O)C23CC2c2cc(OC)ccc2-c2c(C4CCCCC4)c4ccc(C(=O)NS(=O)(=O)N(C)C)cc4n2C3)CCO1 (stereo not drawn) | 97 to 1000 | 97 to 1000 |  |
| COc1ccc2c(c1)C1CC1(C(=O)O)Cn1c-2c(C2CCCCC2)c2ccc(C(=O)NS(N)(=O)=O)cc21 (stereo not drawn) | 97 to 1000 |  |  |
| COc1ccc2c(c1)C1CC1(C(=O)N1CC[C@H](N(C)C)C1)Cn1c-2c(C2CCCCC2)c2ccc(C(=O)NS(=O)(=O)C3CC3)cc21 (stereo partly drawn) | 97 to 1000 |  | 97 to 1000 |
| CCC(CC)N1CCN(C(=O)C23CC2c2cc(OC)ccc2-c2c(C4CCCCC4)c4ccc(C(=O)NS(=O)(=O)N(C)C)cc4n2C3)CC1 (stereo not drawn) [drawing 37] | 97 to 1000 |  |  |
| CCN(CC)CCN1CCCN(C(=O)C23CC2c2cc(OC)ccc2-c2c(C4CCCCC4)c4ccc(C(=O)NS(=O)(=O)N(C)C)cc4n2C3)CC1 (stereo not drawn) | 97 to 1000 |  | 97 to 1000 |
| COc1ccc2c(c1)C1CC1(C(=O)N1CCOC[C@H]1CN)Cn1c-2c(C2CCCCC2)c2ccc(C(=O)NS(=O)(=O)N(C)C)cc21 (stereo partly drawn) | 97 to 1000 |  | 97 to 1000 |
| COc1ccc2c(c1)C1CC1(C(=O)N1CCCN(C)CC1)Cn1c-2c(C2CCCCC2)c2ccc(C(=O)NS(=O)(=O)C3CC3)cc21 (stereo not drawn) | 97 to 1000 |  | 97 to 1000 |
| COC(=O)c1ccc2c(C3CCCCC3)c3n(c2c1)CC1(C(=O)N2CC(C)OC(C)C2)CC1c1c(OC(F)(F)F)cccc1-3 (stereo not drawn) | 1000 to 10000 |  |  |
| COc1ccc2c(c1)C1CC1(C(=O)N1CCCN(C)CC1)Cn1c-2c(C2CCCCC2)c2ccc(C(=O)NS(N)(=O)=O)cc21 (stereo not drawn) | 97 to 1000 |  | 97 to 1000 |
| COc1ccc2c(c1)C1CC1(C(=O)N1CCCCC1CN(C)C)Cn1c-2c(C2CCCCC2)c2ccc(C(=O)NS(=O)(=O)N(C)C)cc21 (stereo not drawn) [drawing 49] | 97 to 1000 |  | 97 to 1000 |
| COc1ccc2c(c1)C1CC1(C(=O)N1CCOC[C@H]1C)Cn1c-2c(C2CCCCC2)c2ccc(C(=O)NS(=O)(=O)N(C)C)cc21 (stereo partly drawn) | 97 to 1000 |  | 97 to 1000 |
| COc1ccc2c(c1)C1CC1(C(=O)N1C[C@@H](C)O[C@@H](C)C1)Cn1c-2c(C2CCCCC2)c2ccc(C(=O)NS(=O)(=O)C3CC3)cc21 (stereo partly drawn) | 97 to 1000 |  | 97 to 1000 |
| COc1ccc2c(c1)[C@@H]1C[C@]1(C(=O)O)Cn1c-2c(C2CCCCC2)c2ccc(C(=O)NS(=O)(=O)N(C)C)cc21 | 97 to 1000 | 1000 to 10000 |  |
| COc1ccc2c(c1)C1CC1(C(=O)N1CCC(C)(O)CC1)Cn1c-2c(C2CCCCC2)c2ccc(C(=O)NS(=O)(=O)N(C)C)cc21 (stereo not drawn) | 97 to 1000 |  | 97 to 1000 |
| CCC(CC)N1CCN(C(=O)C23CC2c2cc(OC)ccc2-c2c(C4CCCCC4)c4ccc(C(=O)NS(=O)(=O)N(C)C)cc4n2C3)CC1 (stereo not drawn) [drawing 39] | 97 to 1000 |  |  |
| COc1ccc2c(c1)C1CC1(C(=O)N1CCCCC1CN(C)C)Cn1c-2c(C2CCCCC2)c2ccc(C(=O)NS(=O)(=O)N(C)C)cc21 (stereo not drawn) [drawing 50] | 97 to 1000 |  |  |
| COc1ccc2c(c1)C1CC1(C(=O)N1CCC(C)(O)CC1)Cn1c-2c(C2CCCCC2)c2ccc(C(=O)NS(=O)(=O)N3CCC3)cc21 (stereo not drawn) | 97 to 1000 |  | 97 to 1000 |
| COc1ccc2c(c1)C1CC1(C(=O)N1CCCN(C)CC1)Cn1c-2c(C2CCCCC2)c2ccc(C(=O)NS(=O)(=O)N(C)C)cc21 (stereo not drawn) [drawing 65] | 97 to 1000 |  |  |
| COc1ccc2c(c1)[C@H]1C[C@@]1(C(=O)O)Cn1c-2c(C2CCCCC2)c2ccc(C(=O)NS(=O)(=O)N(C)C)cc21 | 97 to 1000 | 1000 to 10000 |  |
| COC(=O)c1ccc2c(C3CCCCC3)c3n(c2c1)CC1(C(=O)O)CC1c1c(OC(F)(F)F)cccc1-3 (stereo not drawn) | 1000 to 10000 |  |  |
| COc1ccc2c(c1)C1CC1(C(=O)N1CC[C@@H](N(C)C)C1)Cn1c-2c(C2CCCCC2)c2ccc(C(=O)NS(=O)(=O)N(C)C)cc21 (stereo partly drawn) | 97 to 1000 |  | 97 to 1000 |
| COc1ccc2c(c1)C1CC1(C(=O)O)Cn1c-2c(C2CCCCC2)c2ccc(C(=O)OC(C)(C)C)cc21 (stereo not drawn) | 1000 to 10000 |  |  |
| COC(=O)C12CC1c1cc(OC)ccc1-c1c(C3CCCCC3)c3ccc(C(=O)NS(=O)(=O)C(C)C)cc3n1C2 (stereo not drawn) | 97 to 1000 |  |  |
| COC(=O)C12CC1c1cc(OC)ccc1-c1c(C3CCCCC3)c3ccc(C(=O)NS(N)(=O)=O)cc3n1C2 (stereo not drawn) | 97 to 1000 |  |  |
| COc1ccc2c(c1)C1CC1(C(=O)N1CCCN(C)CC1)Cn1c-2c(C2CCCCC2)c2ccc(C(=O)NS(=O)(=O)N3CCC3)cc21 (stereo not drawn) | 97 to 1000 |  |  |
| COc1ccc2c(c1)C1CC1(C(=O)O)Cn1c-2c(C2CCCCC2)c2ccc(C(=O)NS(=O)(=O)C(C)C)cc21 (stereo not drawn) | 97 to 1000 |  |  |
| COc1ccc2c(c1)C1CC1(C(=O)N1CCC(C)(O)CC1)Cn1c-2c(C2CCCCC2)c2ccc(C(=O)NS(=O)(=O)C3CC3)cc21 (stereo not drawn) | 97 to 1000 |  |  |
| COc1ccc2c(c1)C1CC1(C(=O)O)Cn1c-2c(C2CCCCC2)c2ccc(C(=O)NS(=O)(=O)C3CC3)cc21 (stereo not drawn) | 97 to 1000 |  |  |
